Experimental data taken from patent US11371077B2, “High throughput cell-based screening for aptamers” (MeiraGTx UK II Limited, priority 2016, dated 2022).

What was measured:
Assay type in all cases: cell-based
[1] = system: riboswitches with guanine aptamers; experiment: Dose responses of constructs with different aptamer based riboswitches (FIG. 1b); conditions: mammalian cells
Source text: (§1) A truncated human beta-globin intron sequence was synthesized and inserted in the coding sequence of a firefly luciferase gene. A mutant human DHFR exon 2 was synthesized and inserted in the middle of this truncated beta-globin intron sequence using Golden gate cloning strategy. Aptamers including xpt-G/A^1, ydhl-G/A^2, yxj^3, add^4, gdg6-G/A^5 (citations for the aptamers are incorporated herein by reference) were synthesized as oligonucleotides (“oligos”) with 4 nucleotide overhang at the 5′ end that are complementary to two different BsaI sites individually (IDT), annealed and ligated to BsaI-digested mDHFR-Luci-acceptor vector.
3.5×10^4 HEK 293 cells were plated in a 96-well flat bottom plate the day before transfection. Plasmid DNA (500 ng) was added to a tube or a 96-well U-bottom plate. […] Then, 50 μL of this diluted transfection reagent was added to the DNA, mixed, and incubated at RT for 20 min. […]
24 hours after media change, plates were removed from the incubator, and equilibrated to RT for several minutes on a lab bench, then aspirated. […] Following a 5 min incubation at RT, luminescence was measured using a Tecan machine with 500 mSec read time. The luciferase activity was expressed as mean relative light unit (RLU)±S.D., and fold induction was calculated as the luciferase activity obtained with guanine treatment divided by luciferase activity obtained without guanine treatment.

xpt-G17 riboswitch = experiment: Luciferase reporter assay, xpt-G17 riboswitch, transfected HEK 293 cells; conditions: for response of guanine riboswitch xpt-G17 to compound (FIG. 1e): Prestwick library at 100 μM
Source text: as §1
(§2) 3.5×10^4 HEK 293 cells were plated in a 96-well flat bottom plate the day before transfection. Plasmid DNA (500 ng) was added to a tube or a 96-well U-bottom plate. Separately, TransIT-293 reagent (Mirus; 1.4 μL) was added to 50 μL Opti-mem I media (Life Technologies), and allowed to sit for 5 minutes at room temperature (RT). Then, 50 μL of this diluted transfection reagent was added to the DNA, mixed, and incubated at RT for 20 min. Finally, 7 μL of this solution was added to a well of cells in the 96-well plate.
(§3) 24 hours after media change, plates were removed from the incubator, and equilibrated to RT for several minutes on a lab bench, then aspirated. Glo-lysis buffer (Promega, 100 μL, RT) was added, and the plates maintained at RT for at least 5 minutes. Then, the well contents were mixed by 50 μL trituration, and 20 μL of each sample was mixed with 20 μL of bright-glo reagent (Promega) that had been diluted to 10% in glo-lysis buffer. 96 wells were spaced on an opaque white 384-well plate. Following a 5 min incubation at RT, luminescence was measured using a Tecan machine with 500 mSec read time. The luciferase activity was expressed as mean relative light unit (RLU)±S.D., and fold induction was calculated as the luciferase activity obtained with guanine treatment divided by luciferase activity obtained without guanine treatment.

add-A6 riboswitch = experiment: cells; conditions: Homo sapiens, HEK293, read-out: Fold Induction of luciferase activity
Source text: (§4) Riboswitches were constructed as described in PCT/US2016/016234 (in particular Examples 3 to 6), incorporated herein by reference. A truncated human beta-globin intron sequence was synthesized and inserted in the coding sequence of a firefly luciferase gene. A mutant human DHFR exon 2 was synthesized and inserted in the middle of this truncated beta-globin intron sequence using Golden gate cloning strategy. Aptamers including xpt-G/A^1, ydhl-G/A^2, yxj^3, add^4, gdg6-G/A^5 (citations for the aptamers are incorporated herein by reference) were synthesized as oligonucleotides (“oligos”) with 4 nucleotide overhang at the 5′ end that are complementary to two different BsaI sites individually (IDT), annealed and ligated to BsaI-digested mDHFR-Luci-acceptor vector.
as §2, §3

xpt-A8 riboswitch = experiment: cells; conditions: Homo sapiens, HEK293, read-out: Fold Induction of luciferase activity
Source text: as §4, §2, §3

ydhl-G8 riboswitch = experiment: Luciferase reporter assay, ydhl-G8 riboswitch, transfected HEK 293 cells; conditions: Homo sapiens, HEK293, read-out: Fold Induction of luciferase activity
Source text: as §1
(§5) 3.5×10^4 HEK 293 cells were plated in a 96-well flat bottom plate the day before transfection. Plasmid DNA (500 ng) was added to a tube or a 96-well U-bottom plate. […] Then, 50 μL of this diluted transfection reagent was added to the DNA, mixed, and incubated at RT for 20 min. Finally, 7 μL of this solution was added to a well of cells in the 96-well plate.
as §3

gdg6-G8 riboswitch = experiment: Luciferase reporter assay, gdg6-G8 riboswitch, transfected HEK 293 cells; conditions: Homo sapiens, HEK293; gdg6-G8 riboswitch; Prestwick library compounds at 100 μM; HEK 293
Source text: as §4, §2, §3

add-G6 riboswitch = experiment: cells; conditions: Homo sapiens, HEK293, read-out: Fold Induction of luciferase activity
Source text: as §1, §5
as §3, with “The luciferase activity was expressed as mean relative light unit (RLU)±S.D., and fold induction was calculated as the luciferase activity obtained with guanine treatment divided by luciferase activity obtained without guanine treatment.” left out

gdg6-A8 riboswitch = experiment: Luciferase reporter assay, gdg6-A8 riboswitch, transfected HEK 293 cells; conditions: Homo sapiens, HEK293; gdg6-A8 riboswitch; Prestwick library compounds at 100 μM; HEK 293
Source text: as §4, §2, §3

ydhl-A6 riboswitch = experiment: Luciferase reporter assay, ydhl-A6 riboswitch, transfected HEK 293 cells; conditions: Homo sapiens, HEK293, read-out: Fold Induction of luciferase activity, ydhl-A6 riboswitch; Prestwick library compounds at 100 μM; HEK 293
Source text: as §1, §5, §3

yxj-A6 riboswitch = experiment: cells; conditions: Homo sapiens, HEK293, read-out: Fold Induction of luciferase activity
Source text: as §1, §2
as §3, with “The luciferase activity was expressed as mean relative light unit (RLU)±S.D., and fold induction was calculated as the luciferase activity obtained with guanine treatment divided by luciferase activity obtained without guanine treatment.” left out

SMILES | response of riboswitches with guanine aptamers (reporter gene expression, FIG. 1b) [1] | response of guanine riboswitch xpt-G17 to compound (FIG. 1e) (xpt-G17 riboswitch; preliminary screen) | induction fold of luciferase reporter in response to guanine (xpt-G17 riboswitch; xpt-G17, high concentration of guanine) | fold induction at 100 µM (add-A6 riboswitch) | fold induction at 100 µM (xpt-A8 riboswitch) | fold induction at 100 µM (ydhl-G8 riboswitch) | fold induction at 100 µM (gdg6-G8 riboswitch) | fold induction at 100 µM (add-G6 riboswitch) | fold induction at 100 µM (gdg6-A8 riboswitch) | fold induction at 100 µM (ydhl-A6 riboswitch) | fold induction at 100 µM (yxj-A6 riboswitch) | fold induction at 100 µM (xpt-G17 riboswitch; Homo sapiens, HEK293, xpt-G17 riboswitch, Prestwick library compounds at 100 μM, HEK 293, preliminary screen)
Nc1nc2nc[nH]c2c(=O)[nH]1 [guanine] | responds | responded | 2000 fold |  |  |  |  |  |  |  |  | 
Nc1nc2c(ncn2[C@@H]2O[C@H](CO)[C@@H](O)[C@H]2O)c(=O)[nH]1 [guanosine] | responds |  |  |  |  |  |  |  |  |  |  | 
Nc1nc2nn[nH]c2c(=O)[nH]1 [8-Azaguanine] |  | responded |  | 22.1 | 95.1 | 35.6 | 42.3 | 47.9 | 306 | 3.7 | 55.6 | 131
